In patent US20170232083A1, “METHODS OF DIAGNOSIS AND TREATMENT OF CELIAC DISEASE IN CHILDREN” (priority 2014, published 2017):

Tested on: PBMC (polyclonal gluten-specific T cells) of paediatric and adult CD patients
Test: IFN-γ ELISpot of PBMC after 3 day oral wheat challenge (SFU, % of maximal peptide response, dominance scores, EC50; Examples 5-6)
Assay type: cell-based, human
Conditions: for IFN-γ ELISpot response: after oral wheat challenge; for Cross-reactive T cell response: following wheat challenge
[1] = patient A, 11-17 yrs, cut-off 10 SFU
[2] = patient E, H, 11-17 yrs, cut-off 10 SFU
[3] = patient F, 11-17 yrs, cut-off 10 SFU
[4] = patient G, 11-17 yrs, cut-off 10 SFU
[5] = patient H (HLA-DQ2.5 homozygote), 3-5yrs, cut-off 10 SFU
[6] = patient H, 11-17 yrs, cut-off 10 SFU
[7] = patient ID not given, 11-17 yrs, cut-off 10 SFU
[8] = patient ID not given, max peptide 95 SFU
[9] = patient N, 3-5yrs, cut-off 10 SFU
[10] = patient P, 11-17 yrs, cut-off 21.6 SFU
[11] = patient Q, 11-17 yrs, cut-off 10 SFU
[12] = patient U, H, 11-17 yrs, cut-off 10 SFU
[13] = patient V, 6-10 yrs, cut-off 10 SFU
[14] = patient Y, 6-10 yrs, cut-off 10 SFU
[15] = patient eleven, 6-10 yrs, cut-off 10 SFU
[16] = patient five, max peptide 48 SFU
[17] = patient four, 3-5yrs, cut-off 10 SFU
[18] = patient seven, 6-10 yrs, cut-off 10.5 SFU
[19] = patient ten, 3-5yrs, cut-off 10 SFU
[20] = patient three, 6-10 yrs, cut-off 10.5 SFU
[21] = patient twelve, 11-17 yrs, cut-off 10 SFU
[22] = patient two, 3-5yrs, cut-off 10 SFU
[23] = patient seven, max peptide 27 SFU

PFPEQPEQPYPQQ
IFN-γ ELISpot response [1]: 0 SFU | IFN-γ ELISpot response [2]: 14 SFU | Significant response as percentage of maximal peptide SFU (patient E, max peptide 224 SFU): (6-10% = ^) | IFN-γ ELISpot response [3]: 8 SFU | IFN-γ ELISpot response [4]: 1 SFU | IFN-γ ELISpot response [5]: 11 SFU | IFN-γ ELISpot response [6]: 1 SFU | IFN-γ ELISpot response [7]: 14 SFU | Significant response as percentage of maximal peptide SFU [8]: ′ (11-20% = ′) | Significant response as percentage of maximal peptide SFU (patient II, max peptide 15 SFU): + (>70% = +) | Significant response as percentage of maximal peptide SFU (patient M, max peptide 48 SFU): ′ (11-20% = ′) | IFN-γ ELISpot response [9]: 1 SFU | IFN-γ ELISpot response [10]: 15 SFU | IFN-γ ELISpot response [11]: 19 SFU | Significant response as percentage of maximal peptide SFU (patient Q, max peptide 97 SFU): ′ (11-20% = ′) | IFN-γ ELISpot response [12]: 2 SFU | IFN-γ ELISpot response [13]: 7 SFU | IFN-γ ELISpot response [14]: 5 SFU | IFN-γ ELISpot response [15]: 3 SFU | Significant response as percentage of maximal peptide SFU [16]: ′′ (21-40% = ′′) | IFN-γ ELISpot response [17]: 4 SFU | IFN-γ ELISpot response [18]: 3 SFU | IFN-γ ELISpot response [19]: 5 SFU | IFN-γ ELISpot response [20]: 9 SFU | IFN-γ ELISpot response [21]: 2 SFU | IFN-γ ELISpot response [22]: 6 SFU

PFPLQPEQPFPQP
IFN-γ ELISpot response [1]: 6 SFU | Significant response as percentage of maximal peptide SFU (patient D, max peptide 30.5 SFU): ′′′ (41-70% = ′′′) | IFN-γ ELISpot response [2]: 30 SFU | Significant response as percentage of maximal peptide SFU (patient E, max peptide 224 SFU): ′ (11-20% = ′) | IFN-γ ELISpot response [3]: 35 SFU | Significant response as percentage of maximal peptide SFU (patient F, max peptide 178 SFU): ′ (11-20% = ′) | IFN-γ ELISpot response [4]: 2 SFU | IFN-γ ELISpot response [5]: 24 SFU | IFN-γ ELISpot response [6]: 11 SFU | Significant response as percentage of maximal peptide SFU (patient H, max peptide 17 SFU): ′′′ (41-70% = ′′′) | IFN-γ ELISpot response [7]: 28 SFU | Significant response as percentage of maximal peptide SFU [8]: ′′ (21-40% = ′′) | Significant response as percentage of maximal peptide SFU (patient II, max peptide 15 SFU): + (>70% = +) | Significant response as percentage of maximal peptide SFU (patient J, max peptide 196 SFU): ′′ (21-40% = ′′) | Significant response as percentage of maximal peptide SFU (patient K, max peptide 53 SFU): ′′′ (41-70% = ′′′) | Significant response as percentage of maximal peptide SFU (patient M, max peptide 48 SFU): ′′′ (41-70% = ′′′) | IFN-γ ELISpot response [9]: 7 SFU | IFN-γ ELISpot response [10]: 27 SFU | Significant response as percentage of maximal peptide SFU (patient P, max peptide 64 SFU): ′′′ (41-70% = ′′′) | IFN-γ ELISpot response [11]: 43 SFU | Significant response as percentage of maximal peptide SFU (patient Q, max peptide 97 SFU): ′′′ (41-70% = ′′′) | IFN-γ ELISpot response [12]: 23 SFU | Significant response as percentage of maximal peptide SFU (patient U, max peptide 81 SFU): ′′ (21-40% = ′′) | IFN-γ ELISpot response [13]: 21 SFU | Significant response as percentage of maximal peptide SFU (patient V, max peptide 35 SFU): ′′′ (41-70% = ′′′) | Significant response as percentage of maximal peptide SFU (patient W, max peptide 30 SFU): + (>70% = +) | IFN-γ ELISpot response [14]: 9 SFU | Significant response as percentage of maximal peptide SFU (patient eight, max peptide 12 SFU): + (>70% = +) | IFN-γ ELISpot response [15]: 8 SFU | Significant response as percentage of maximal peptide SFU [16]: + (>70% = +) | IFN-γ ELISpot response [17]: 22 SFU | Significant response as percentage of maximal peptide SFU (patient four, max peptide 44 SFU): ′′′ (41-70% = ′′′) | IFN-γ ELISpot response [18]: 27 SFU | Significant response as percentage of maximal peptide SFU [23]: + (>70% = +) | IFN-γ ELISpot response [19]: 8 SFU | IFN-γ ELISpot response [20]: 52 SFU | IFN-γ ELISpot response [21]: 15 SFU | IFN-γ ELISpot response [22]: 24 SFU | Significant response as percentage of maximal peptide SFU (patient two, max peptide 60 SFU): ′′ (21-40% = ′′)

PFPLQPEQPVPEQPQ
Cross-reactive T cell response (subject A, 11-17yrs): 2 SFU | Cross-reactive T cell response (subject D, 11-17yrs): 9 SFU | Cross-reactive T cell response (subject E, 11-17yrs): 3 SFU | Significant response as a percentage of maximal peptide SFU (subject F, 11-17yrs): ′ (11-20% = ′) | Cross-reactive T cell response (subject F, 11-17yrs): 20 SFU | Cross-reactive T cell response (subject G, 11-17yrs): 0 SFU | Cross-reactive T cell response (subject H): 3 SFU | Cross-reactive T cell response (subject I (3-5yrs/6-10yrs part)): 1 SFU | Cross-reactive T cell response (subject J (3-5yrs/6-10yrs part)): 3 SFU | Cross-reactive T cell response (subject K (3-5yrs/6-10yrs part)): 5 SFU | Cross-reactive T cell response (subject P, 11-17yrs): 6 SFU | Cross-reactive T cell response (subject Q, 11-17yrs): 5 SFU | Significant response as a percentage of maximal peptide SFU (subject T, 11-17yrs): ′′ (21-40% = ′′) | Cross-reactive T cell response (subject T, 11-17yrs): 21 SFU | Significant response as a percentage of maximal peptide SFU (subject U, 11-17yrs): ′ (11-20% = ′) | Cross-reactive T cell response (subject U, 11-17yrs): 10 SFU | Cross-reactive T cell response (subject V (3-5yrs/6-10yrs part)): 7 SFU | Cross-reactive T cell response (subject W (3-5yrs/6-10yrs part)): 11 SFU | Cross-reactive T cell response (subject Y (3-5yrs/6-10yrs part)): 2 SFU | Cross-reactive T cell response (subject five (3-5yrs/6-10yrs part)): 1 SFU | Cross-reactive T cell response (subject nine, 11-17yrs): 1 SFU | Cross-reactive T cell response (subject seven (3-5yrs/6-10yrs part)): 1 SFU | Cross-reactive T cell response (subject six (3-5yrs/6-10yrs part)): 3 SFU | Significant response as a percentage of maximal peptide SFU (subject ten): + (>70% = +) | Cross-reactive T cell response (subject ten (3-5yrs/6-10yrs part)): 11 SFU | Cross-reactive T cell response (subject two (3-5yrs/6-10yrs part)): 5 SFU

PFPQQPQQPFPQP
IFN-γ ELISpot response [1]: 0 SFU | IFN-γ ELISpot response [2]: 0 SFU | IFN-γ ELISpot response [3]: 1 SFU | IFN-γ ELISpot response [4]: 0 SFU | IFN-γ ELISpot response [5]: 4 SFU | IFN-γ ELISpot response [6]: 2 SFU | IFN-γ ELISpot response [7]: 0 SFU | IFN-γ ELISpot response [9]: 2 SFU | IFN-γ ELISpot response [10]: 14 SFU | IFN-γ ELISpot response [11]: 9 SFU | IFN-γ ELISpot response [12]: 2 SFU | IFN-γ ELISpot response [13]: 3 SFU | IFN-γ ELISpot response [14]: 6 SFU | IFN-γ ELISpot response [15]: 3 SFU | IFN-γ ELISpot response [17]: 0 SFU | IFN-γ ELISpot response [18]: 1 SFU | IFN-γ ELISpot response [19]: 12 SFU | Significant response as percentage of maximal peptide SFU (patient ten, max peptide 14.5 SFU): + (>70% = +) | IFN-γ ELISpot response [20]: 5 SFU | IFN-γ ELISpot response [21]: 2 SFU | IFN-γ ELISpot response [22]: 3 SFU

PIPQQPQQPFPLQ
IFN-γ ELISpot response [1]: 6 SFU | IFN-γ ELISpot response [2]: 5 SFU | IFN-γ ELISpot response [3]: 5 SFU | IFN-γ ELISpot response [4]: 2 SFU | IFN-γ ELISpot response [5]: 0 SFU | IFN-γ ELISpot response [6]: 10 SFU | Significant response as percentage of maximal peptide SFU (patient H, max peptide 17 SFU): ′′′ (41-70% = ′′′) | IFN-γ ELISpot response [7]: 3 SFU | Significant response as percentage of maximal peptide SFU (patient II, max peptide 15 SFU): + (>70% = +) | IFN-γ ELISpot response [9]: 1 SFU | IFN-γ ELISpot response [10]: 9 SFU | IFN-γ ELISpot response [11]: 13 SFU | Significant response as percentage of maximal peptide SFU (patient Q, max peptide 97 SFU): ′ (11-20% = ′) | IFN-γ ELISpot response [12]: 4 SFU | IFN-γ ELISpot response [13]: 9 SFU | IFN-γ ELISpot response [14]: 5 SFU | IFN-γ ELISpot response [15]: 4 SFU | IFN-γ ELISpot response [17]: 1 SFU | IFN-γ ELISpot response [18]: 14 SFU | Significant response as percentage of maximal peptide SFU [23]: ′′′ (41-70% = ′′′) | IFN-γ ELISpot response [19]: 7 SFU | IFN-γ ELISpot response [20]: 1 SFU | IFN-γ ELISpot response [21]: 1 SFU | IFN-γ ELISpot response [22]: 2 SFU
